Legend:
Type in all cases: in vivo, human
[1] = Pharmacokinetics in Japanese cohort (J102)
Protocol: (§1) In both studies, the PK profile of DS-7423 was characterised during cycle 1 on days 1 and 8. For PD analysis, glucose, C-peptide, and Akt phosphorylation were measured in platelet-rich plasma collected at predose, 1, 2, 4, 6, and 24 h after dosing on days 1 and 15. Tumour assessment was performed every two cycles using Response Evaluation Criteria in Solid Tumours (RECIST) version 1.1 in both studies. 18F-Fluoro-2-deoxy-D-glucose positron emission tomography ([18F]-FDG) was performed as an exploratory endpoint at baseline and on day 4.[10]
The data cut-off for the primary analysis occurred after all patients had either discontinued the study or completed 6 months of study drug treatment. Descriptive statistics were provided for selected demographic, safety, PK, and PD data by dose and time as appropriate. Descriptive statistics on continuous data included means, medians, standard deviations, and ranges, while categorical data were summarised using frequency counts and percentages. No inferential analysis to compare dose levels was performed due to limited sample sizes. The WinNonlin software was used for PK analysis.

[2] = tested on: patients with advanced, refractory solid tumours; test: US and Japanese phase I studies combined: safety
Protocol: We conducted two independent, prospective, first-in-human phase I studies of DS-7423, a dual PI3K/mTOR inhibitor, in patients with advanced, refractory solid tumours in the US (U101 study) and Japan (J102 study); age ≥18 years in the US and ≥20 years in Japan; and Eastern Cooperative Oncology Group performance status (ECOG PS) 0–1. Key exclusion criteria included fasting glucose >126 mg/dL (>7 mmol/L); HbA1c >7.0% for the US and HbA1c >6.5% for Japan; history of diabetes mellitus (type I or II); concomitant use of chronic systemic corticosteroids, or prior toxicities from a dual PI3K/mTOR inhibitor (Supplementary Table 1). Studies were approved by the Institutional Review Board at the participating institutions and regulatory authorities. Written informed consent in English and Japanese was obtained from all patients prior to enrollment. The study followed the Declaration of Helsinki and good clinical practice guidelines and was registered with ClinicalTrials.gov (NCT01364844) and with ClinicalTrials.jp (Japic CTI, 12766).
The primary objective was to assess the safety and tolerability to determine the MTD and RP2D of DS-7423 in US and Japanese patients. Secondary and exploratory objectives were to evaluate PK, tumour response, and PD effects. Treatment-emergent adverse events (TEAE) were graded using the Common Terminology Criteria for Adverse Events version 4.0. A dose-limiting toxicity (DLT) was defined as a grade ≥3 clinically significant toxicity, with the exceptions of grade ≥4 anaemia and prolonged grade 3 neutropenia. Both studies were open-label, phase I dose-escalation studies. In Japan, the study was conducted at a single centre, while the US study was conducted at three sites. In Japan, dose escalation of DS-7423 was guided by the modified continuous reassessment method (mCRM) using a Bayesian logistic regression model following the escalation with overdose control (EWOC) principle at a starting dose of 4 mg once daily.[9] In the US, an accelerated titration design was used at low doses followed by a mCRM with EWOC. Briefly, the dose was escalated based on safety data in a single patient until a grade 2 or higher toxicity was observed during cycle 1 or the DLT period (days 1–28). In both studies, DS-7423 was administered orally once daily until patients experienced unacceptable treatment-related toxicity or disease progression. Prophylactic granulocyte colony-stimulating factor and antiemetics were not permitted during cycle 1.

advanced solid tumours = test: Tumour assessment RECIST 1.1, US study; conditions: of 27 patients
Protocol: as §1

[3] = dose level 4, Japanese cohort (n = 3)
[4] = dose level 8, Japanese cohort (n = 3)
[5] = dose level 16, Japanese cohort (n = 2)
[6] = dose level 160, Japanese cohort (n = 3)
[7] = dose level 240, Japanese cohort (n = 5)

With CC(=O)N1CCN(c2nc3c(N4CCOCC4)nc(-c4cnc(N)nc4)nc3n2CC(F)(F)F)C[C@H]1C [DS-7423] the “Mean AUCtau” value [1, 3] was 31.1 ng·h/mL, the “Mean Cmax” value [1, 3] was 3 ng/mL and the T1/2 [1, 3] was 6 to 7 h. The Tmax [1, 3] was 2 to 4 h, the “Mean AUCtau” value [1, 4] was 84.2 ng·h/mL and the “Mean Cmax” value [1, 4] was 10 ng/mL. For the same compound, the T1/2 [1, 4] was 6 to 7 h, the Tmax [1, 4] was 2 to 4 h and the “Mean AUCtau” value [1, 5] was 178 ng·h/mL. The “Mean Cmax” value [1, 5] was 18 ng/mL, the T1/2 [1, 5] was 6 to 7 h and the Tmax [1, 5] was 2 to 4 h. The “Mean AUCtau” value [1, 6] was 1223.3 ng·h/mL, the “Mean Cmax” value [1, 6] was 61 ng/mL and the T1/2 [1, 6] was 6 to 7 h. For the same compound, the Tmax [1, 6] was 2 to 4 h, the “Mean AUCtau” value [1, 7] was 1184.8 ng·h/mL and the “Mean Cmax” value [1, 7] was 83.6 ng/mL. The T1/2 [1, 7] was 12 h, the Tmax [1, 7] was 2 to 4 h and the “AST increased (TEAE), incidence” value ([2]; All (n = 69)) was 10.1%. The “AST increased (TEAE), n patients” value ([2]; All (n = 69)) was 7, the “Abdominal pain (TEAE), incidence” value ([2]; All (n = 69)) was 14.5% and the “Abdominal pain (TEAE), n patients” value ([2]; All (n = 69)) was 10. The “Back pain (TEAE), incidence” value ([2]; All (n = 69)) was 15.9%, the “Back pain (TEAE), n patients” value ([2]; All (n = 69)) was 11 and the “Blood creatinine increased (TEAE), incidence” value ([2]; All (n = 69)) was 10.1%. For the same compound, the “Blood creatinine increased (TEAE), n patients” value ([2]; All (n = 69)) was 7, the “Constipation (TEAE), incidence” value ([2]; All (n = 69)) was 18.8% and the “Constipation (TEAE), n patients” value ([2]; All (n = 69)) was 13. The “Cough (TEAE), incidence” value ([2]; All (n = 69)) was 15.9%, the “Cough (TEAE), n patients” value ([2]; All (n = 69)) was 11 and the “Decreased appetite (TEAE), incidence” value ([2]; All (n = 69)) was 49.3%. For the same compound, the “Decreased appetite (TEAE), n patients” value ([2]; All (n = 69)) was 34, the “Dehydration (TEAE), incidence” value ([2]; All (n = 69)) was 8.7% and the “Dehydration (TEAE), n patients” value ([2]; All (n = 69)) was 6. The “Diarrhoea (TEAE), incidence” value ([2]; All (n = 69)) was 56.5%, the “Diarrhoea (TEAE), n patients” value ([2]; All (n = 69)) was 39 and the “Dry mouth (TEAE), incidence” value ([2]; All (n = 69)) was 18.8%. For the same compound, the “Dry mouth (TEAE), n patients” value ([2]; All (n = 69)) was 13, the “Dysgeusia (TEAE), incidence” value ([2]; All (n = 69)) was 27.5% and the “Dysgeusia (TEAE), n patients” value ([2]; All (n = 69)) was 19. For the same compound, the “Edema (TEAE), incidence” value ([2]; All (n = 69)) was 17.4%, the “Edema (TEAE), n patients” value ([2]; All (n = 69)) was 12 and the “Fatigue (TEAE), incidence” value ([2]; All (n = 69)) was 55.1%. The “Fatigue (TEAE), n patients” value ([2]; All (n = 69)) was 38, the “Hyperglycaemia (TEAE), incidence” value ([2]; All (n = 69)) was 17.4% and the “Hyperglycaemia (TEAE), n patients” value ([2]; All (n = 69)) was 12. The “Lung infection/ pneumonia (TEAE), incidence” value ([2]; All (n = 69)) was 5.8%, the “Lung infection/ pneumonia (TEAE), n patients” value ([2]; All (n = 69)) was 4 and the “Nausea (TEAE), incidence” value ([2]; All (n = 69)) was 56.5%. For the same compound, the “Nausea (TEAE), n patients” value ([2]; All (n = 69)) was 39, the “Pyrexia (TEAE), incidence” value ([2]; All (n = 69)) was 14.5% and the “Pyrexia (TEAE), n patients” value ([2]; All (n = 69)) was 10. The “Rash (TEAE), incidence” value ([2]; All (n = 69)) was 33.3%, the “Rash (TEAE), n patients” value ([2]; All (n = 69)) was 23 and the “Stomatitis (TEAE), incidence” value ([2]; All (n = 69)) was 33.3%. For the same compound, the “Stomatitis (TEAE), n patients” value ([2]; All (n = 69)) was 23, the “Vomiting (TEAE), incidence” value ([2]; All (n = 69)) was 37.7% and the “Vomiting (TEAE), n patients” value ([2]; All (n = 69)) was 26. For the same compound, the RP2D ([2]; US and Japan phase I studies, oral once daily) was 240 mg/day, the “DS-7423-related ≥grade 3 TEAE” value ([2]; all cohorts) was “rare” and the “Grade of nausea, vomiting, and dysgeusia events” value ([2]; all cohorts) was “grade 1 or 2”. The “Patients with tumour shrinkage and durable disease control” value (advanced solid tumours) was 5.

Source: article PMC6008299, “Impact of race on dose selection of molecular-targeted agents in early-phase oncology trials” (British Journal of Cancer, 2018)
